# According to patent US11065244B2, “Methods of use of tetrahydroberberine (THB)” (DIGNITY HEALTH, priority 2010, dated 2021):
# Tests used:
# [1] = system: D2 receptor and dopamine-opened K+ channels; experiment: Dopamine-induced membrane potential hyperpolarization in dissociated SNc DA neurons; assay type: cell-based, rat
# Experimental: All experiments were performed at room temperature (22±1° C.).
# SNc DA neurons = experiment: Perforated patch current-clamp recording of membrane potential and firing of dissociated SNc DA neurons, substance applied alone; assay type: cell-based, rat
# Experimental: (§1) The protocol for preparation of single neurons from the rat SNc was approved by the Institutional Animal Care and Use Committee of the Barrow Neurological Institute. Single DA neurons were acutely dissociated from the SNc of 2-3-week-old Wistar rats following the protocol as previously described. Briefly, rats were anesthetized with isoflurane, and brain tissue was rapidly removed and immersed in cold (2-4° C.) dissection solution which contained: 136.7 mM NaCl, 5 mM KCl, 0.1 mM Na2HPO4, 0.2 mM KH2PO4, 9.84 mM HEPES, 16.6 mM D-glucose, 21.9 mM sucrose, pH 7.3, 330 mOsm, oxygenated with 100% O2 [8]. Three 400-μm coronal slices containing the SNc were cut using a vibrotome (Vibroslice 725M, WPI, Sarasota, Fla.). After cutting, slices were continuously bubbled with 95% O2-5% CO2 at room temperature (22±1° C.) for at least one hour in artificial cerebrospinal fluid (ACSF), which contained: 124 mM NaCl, 5 mM KCl, 24 mM NaHCO3, 1.3 mM MgSO4, 1.2 mM KH2PO4, 2.4 mM CaCl2, and 10 mM glucose, pH 7.4. Thereafter, slices were treated with pronase (1 mg per 6 ml) at 31° C. for 30 minutes in ACSF. The SNc was identified in a coronal slice using a stereo microscope with reference to the rat brain atlas, and was micro-punched out from slices using a well-polished needle. One punched piece was then transferred to a 35-mm culture dish filled with well-oxygenated standard extracellular solution, which contained: 150 mM NaCl, 5 mM KCl, 1 mM MgCl2, 2 mM CaCl2, 10 mM glucose 10, and 10 mM HEPES, pH 7.4 (with Tris-base). The punched piece was then dissociated mechanically using a fire-polished micro-Pasteur pipette under an inverted microscope (Olympus IX-70, Lake Success, N.Y.). The separated cells adhered to the bottom of the culture dish within 30 minutes. In the present study, we used only DA neurons that maintained their original morphological features of polygonal, large or medium somata with 2-4 thick primary dendritic processes were used.
# Perforated patch whole-cell recording techniques were employed as previously described. Pipettes (3-5 MΩ) used for perforated patch recording were filled with intracellular recording solution containing 140 mM potassium gluconate, 10 mM KCl, 5 mM MgCl2, and 10 mM HEPES, pH 7.2 (with Tris-OH). The amphotericin B was freshly prepared to 200-240 μg/ml from a 40 mg/ml in DMSO stock. The liquid junction potential was 14 mV calculated using Clamplex 9.2 (Axon Instruments, Foster City, Calif.) and corrections were made for junction potentials post-hoc. After tight seal (>2 GΩ) formation, it usually took about 5-20 min to convert to perforated patch mode, and an access resistance of 20-60 MΩ was accepted to start the experiments. Series resistance was not compensated in this study. The data were filtered at 2 kHz, acquired at 10 kHz and digitized on-line (Digidata 1322 series A/D board, Axon Instruments, Foster City, Calif.). […] Drug application was performed using a computer-controlled “U-tube” system as previously described. All experiments were performed at room temperature (22±1° C.). To enable identification of single, dissociated SNc neurons after a patch-clamp recording session, the recording pipette was filled with a fluorescent dye (lucifer yellow CH, Sigma Chemical Co., St. Louis, Mo., 1.0 mg/ml in the recording electrode) in some experiments. After conversion from the perforated patch to the conventional whole-cell recording mode, the dye was ejected into the cytoplasm by a pulse (200 ms, 0.5 Hz) of hyperpolarizing current (1.0 nA) for 3 min. Labeled cells were visualized using epifluorescence microscopy. […]
# neuronal KATP channels = molecular target: T1, neuronal KATP channels (Rattus norvegicus, UniProt P70673+Q09429); experiment: Rotenone-induced outward current in voltage-clamp mode in the presence of the D2 receptor antagonist sulpiride; assay type: cell-based; conditions: VH −30 mV, 6 neurons
# T1 construct: functional KATP channels natively expressed on midbrain dopamine neurons; from tissue; host or cells: acutely dissociated dopaminergic neurons of rat substantia nigra pars compacta
# T1 sequence (P70673 whole entry): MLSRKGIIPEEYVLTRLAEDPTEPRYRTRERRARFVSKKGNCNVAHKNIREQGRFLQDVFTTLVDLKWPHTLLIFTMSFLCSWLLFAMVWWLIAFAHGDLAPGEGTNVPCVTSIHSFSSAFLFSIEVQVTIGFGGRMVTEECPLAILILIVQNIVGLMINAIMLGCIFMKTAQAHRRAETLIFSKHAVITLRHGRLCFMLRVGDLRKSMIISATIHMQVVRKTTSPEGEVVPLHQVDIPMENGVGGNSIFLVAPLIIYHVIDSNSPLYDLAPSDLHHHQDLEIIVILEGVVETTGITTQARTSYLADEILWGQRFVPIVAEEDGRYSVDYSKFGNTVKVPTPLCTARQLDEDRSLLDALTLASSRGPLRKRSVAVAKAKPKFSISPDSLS
# T1 sequence (Q09429 whole entry): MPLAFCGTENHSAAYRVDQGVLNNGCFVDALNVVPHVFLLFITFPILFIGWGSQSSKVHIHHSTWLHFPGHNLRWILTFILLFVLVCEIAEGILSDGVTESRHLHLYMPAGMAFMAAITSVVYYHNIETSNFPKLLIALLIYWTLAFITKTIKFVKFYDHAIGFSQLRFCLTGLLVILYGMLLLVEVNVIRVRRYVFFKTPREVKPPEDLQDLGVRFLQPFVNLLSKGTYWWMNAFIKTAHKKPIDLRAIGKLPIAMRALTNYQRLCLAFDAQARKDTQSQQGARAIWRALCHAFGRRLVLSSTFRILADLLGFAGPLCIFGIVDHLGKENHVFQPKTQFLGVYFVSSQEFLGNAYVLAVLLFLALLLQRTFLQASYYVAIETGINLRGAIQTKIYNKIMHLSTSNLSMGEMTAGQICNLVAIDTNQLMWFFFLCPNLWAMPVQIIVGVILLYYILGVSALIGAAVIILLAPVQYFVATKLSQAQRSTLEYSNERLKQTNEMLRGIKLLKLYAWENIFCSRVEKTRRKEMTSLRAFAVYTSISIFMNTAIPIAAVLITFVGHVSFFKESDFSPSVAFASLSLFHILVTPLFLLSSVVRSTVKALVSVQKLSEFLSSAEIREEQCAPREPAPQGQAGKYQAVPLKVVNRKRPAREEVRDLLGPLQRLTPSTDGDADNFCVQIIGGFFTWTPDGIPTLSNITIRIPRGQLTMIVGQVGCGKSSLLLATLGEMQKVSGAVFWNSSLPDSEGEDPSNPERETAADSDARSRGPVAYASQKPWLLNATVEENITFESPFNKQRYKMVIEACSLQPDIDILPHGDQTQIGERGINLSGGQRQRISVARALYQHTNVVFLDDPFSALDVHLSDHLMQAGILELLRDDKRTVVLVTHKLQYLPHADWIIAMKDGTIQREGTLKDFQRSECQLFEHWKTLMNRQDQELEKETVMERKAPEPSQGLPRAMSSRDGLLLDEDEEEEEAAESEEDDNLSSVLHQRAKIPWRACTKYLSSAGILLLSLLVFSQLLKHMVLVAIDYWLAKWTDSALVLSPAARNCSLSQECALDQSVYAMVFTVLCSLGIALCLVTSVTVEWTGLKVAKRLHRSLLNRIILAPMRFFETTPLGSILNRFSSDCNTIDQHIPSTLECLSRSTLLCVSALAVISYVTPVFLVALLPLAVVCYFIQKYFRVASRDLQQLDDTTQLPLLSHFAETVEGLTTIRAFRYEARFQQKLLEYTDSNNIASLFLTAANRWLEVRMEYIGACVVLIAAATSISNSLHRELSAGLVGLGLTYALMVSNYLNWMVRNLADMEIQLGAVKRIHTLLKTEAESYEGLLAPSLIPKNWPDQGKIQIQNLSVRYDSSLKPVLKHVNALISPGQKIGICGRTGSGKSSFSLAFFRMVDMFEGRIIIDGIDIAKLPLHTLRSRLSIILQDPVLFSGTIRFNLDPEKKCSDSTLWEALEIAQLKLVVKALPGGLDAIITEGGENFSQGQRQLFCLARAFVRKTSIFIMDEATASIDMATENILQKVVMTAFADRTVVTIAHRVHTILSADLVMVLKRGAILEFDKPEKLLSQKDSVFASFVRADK
# Experimental: as §1, with “In the present study, we used only DA neurons that maintained their original morphological features of polygonal, large or medium somata with 2-4 thick primary dendritic processes were used.” left out
# Perforated patch whole-cell recording techniques were employed as previously described. […] The liquid junction potential was 14 mV calculated using Clamplex 9.2 (Axon Instruments, Foster City, Calif.) and corrections were made for junction potentials post-hoc. […]
# [2] = molecular target: T2, KATP channels in SNc DA neurons (Rattus norvegicus, UniProt P70673+Q09429); experiment: Perforated patch current-clamp recording of rotenone-opened KATP channels in dissociated SNc DA neurons; assay type: cell-based; conditions: for altered membrane potential in the presence of rotenone: FIG. 5C; for altered membrane potential (depolarization) on rotenone-opened KATP channels, analog comparison: 100 μM, 6 neurons, FIG. 4B
# T2 construct: functional KATP channels natively expressed on midbrain dopamine neurons; from tissue; host or cells: acutely dissociated dopaminergic neurons of rat substantia nigra pars compacta
# T2 sequence (P70673 whole entry): as the sequence (P70673 whole entry) above
# T2 sequence (Q09429 whole entry): as the sequence (Q09429 whole entry) above
# Experimental: as §1
# Perforated patch whole-cell recording techniques were employed as previously described. Pipettes (3-5 MΩ) used for perforated patch recording were filled with intracellular recording solution containing 140 mM potassium gluconate, 10 mM KCl, 5 mM MgCl2, and 10 mM HEPES, pH 7.2 (with Tris-OH). The amphotericin B was freshly prepared to 200-240 μg/ml from a 40 mg/ml in DMSO stock. The liquid junction potential was 14 mV calculated using Clamplex 9.2 (Axon Instruments, Foster City, Calif.) and corrections were made for junction potentials post-hoc. After tight seal (>2 GΩ) formation, it usually took about 5-20 min to convert to perforated patch mode, and an access resistance of 20-60 MΩ was accepted to start the experiments. Series resistance was not compensated in this study. The data were filtered at 2 kHz, acquired at 10 kHz and digitized on-line (Digidata 1322 series A/D board, Axon Instruments, Foster City, Calif.). […] Drug application was performed using a computer-controlled “U-tube” system as previously described. All experiments were performed at room temperature (22±1° C.). To enable identification of single, dissociated SNc neurons after a patch-clamp recording session, the recording pipette was filled with a fluorescent dye (lucifer yellow CH, Sigma Chemical Co., St. Louis, Mo., 1.0 mg/ml in the recording electrode) in some experiments. After conversion from the perforated patch to the conventional whole-cell recording mode, the dye was ejected into the cytoplasm by a pulse (200 ms, 0.5 Hz) of hyperpolarizing current (1.0 nA) for 3 min. Labeled cells were visualized using epifluorescence microscopy.
# Under physiological conditions, the KATP channels are mostly closed. However, in the acutely-dissociated single neurons from rat SNc, there is background opening of KATP channels. […]
# Kir6.2/SUR1 = molecular target: T3, Kir6.2/SUR1 (Homo sapiens, UniProt Q09428+Q14654); experiment: Whole-cell voltage-clamp currents of KATP channel subtypes, pancreatic type; assay type: cell-based; conditions: 100 μM perfused for 30 sec; currents at −100 mV; n=4
# T3 construct: expressed in transfected cells
# Experimental: (§2) Using whole-cell recordings in voltage-clamp mode, Command pulse protocol was set by the series test pulses with 100 ms duration that were applied between −100 and +50 mV in 10 mV steps from a holding potential of 0 mV (Top traces in FIG. 11, plots A-C). Representative effects of Ipt (100 μM perfused for 30 sec) on whole-cell current traces recorded from a cell expressed Kir6.2/SUR1 (A), Kir6.2/SUR2A (B) or Kir6.1/SUR2B (C). FIG. 11, plot D summarizes data for currents measured at −100 mV from A-C. Values are means±S.E.M. (n=4). *P<0.05, **P<0.01 vs. control.
# rat pancreatic islets = experiment: Insulin release from rat pancreatic islets; assay type: cell-based; conditions: 100 μM; 5.5 mM glucose external; from 22.5±1.2
# Experimental: With 5.5 mM glucose in the external solution, basal insulin secretion was measured. […] Bath application of 100 μM THB increased insulin secretion from 22.5±1.2 to 39.4±1.5 pg/islet/min (FIG. 5; P<0.01; 6 cells) and 100 μM Ipt increased insulin secretion from 22.5±1.2 to 34.5±1.8 pg/islet/min (FIG. 11; P<0.05; 7 cells).
# [3] = system: cardiac KATP channels (Kir6.1SUR2A); conditions: relevant low concentration; cited from earlier work
# Kir6.2SUR1 KATP channels = molecular target: T4, Kir6.2SUR1 KATP channels (Homo sapiens, UniProt Q09428+Q14654); experiment: Patch-clamp cell attached single-channel recording of transfected Kir6.2SUR1 channels in HEK-293 cells; assay type: cell-based; conditions: 100 μM; control as 1; THB 6 patches, Ipt 8 patches
# T4 construct: expressed in transfected cells; host or cells: HEK-293
# Experimental: In β-cells, the dominant subtype of KATP is the Kir 6.2SUR1 subtype, as earlier described. Cells transiently transfected with the KATP Kir 6.2SUR1 channel subtype were evaluated for membrane potential and action potential firing using cell-attached recording in the presence or absence of 100 μm THB (FIG. 8A).
# To further determine the effects of THB and Ipt on pancreatic β-cell-type KATP channels, the inventor examined the effects of THB or Ipt on the transfected Kir6.2SUR1 KATP channels in HEK-293 cells.
# Kir6.1/SUR2B = molecular target: T5, Kir6.1/SUR2B (Homo sapiens, UniProt O60706+Q15842); experiment: Whole-cell voltage-clamp currents of KATP channel subtypes, vesicle type; assay type: cell-based; conditions: 100 μM perfused for 30 sec; currents at −100 mV; n=4
# T5 construct: expressed in transfected cells
# T5 sequence (Q15842 whole entry, the tested form may be a part): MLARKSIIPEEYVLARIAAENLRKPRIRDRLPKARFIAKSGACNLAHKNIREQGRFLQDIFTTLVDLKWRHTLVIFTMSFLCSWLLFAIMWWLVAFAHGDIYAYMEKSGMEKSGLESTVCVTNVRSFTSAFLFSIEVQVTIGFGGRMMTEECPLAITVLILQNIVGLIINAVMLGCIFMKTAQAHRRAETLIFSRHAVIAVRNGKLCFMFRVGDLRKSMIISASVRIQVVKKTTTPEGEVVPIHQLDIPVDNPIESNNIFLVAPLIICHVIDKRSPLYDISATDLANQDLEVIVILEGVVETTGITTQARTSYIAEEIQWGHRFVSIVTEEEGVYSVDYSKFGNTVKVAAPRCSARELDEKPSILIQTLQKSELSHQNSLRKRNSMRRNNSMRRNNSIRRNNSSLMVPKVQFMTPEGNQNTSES
# T5 sequence (O60706 1-1549 isoform O60706-2): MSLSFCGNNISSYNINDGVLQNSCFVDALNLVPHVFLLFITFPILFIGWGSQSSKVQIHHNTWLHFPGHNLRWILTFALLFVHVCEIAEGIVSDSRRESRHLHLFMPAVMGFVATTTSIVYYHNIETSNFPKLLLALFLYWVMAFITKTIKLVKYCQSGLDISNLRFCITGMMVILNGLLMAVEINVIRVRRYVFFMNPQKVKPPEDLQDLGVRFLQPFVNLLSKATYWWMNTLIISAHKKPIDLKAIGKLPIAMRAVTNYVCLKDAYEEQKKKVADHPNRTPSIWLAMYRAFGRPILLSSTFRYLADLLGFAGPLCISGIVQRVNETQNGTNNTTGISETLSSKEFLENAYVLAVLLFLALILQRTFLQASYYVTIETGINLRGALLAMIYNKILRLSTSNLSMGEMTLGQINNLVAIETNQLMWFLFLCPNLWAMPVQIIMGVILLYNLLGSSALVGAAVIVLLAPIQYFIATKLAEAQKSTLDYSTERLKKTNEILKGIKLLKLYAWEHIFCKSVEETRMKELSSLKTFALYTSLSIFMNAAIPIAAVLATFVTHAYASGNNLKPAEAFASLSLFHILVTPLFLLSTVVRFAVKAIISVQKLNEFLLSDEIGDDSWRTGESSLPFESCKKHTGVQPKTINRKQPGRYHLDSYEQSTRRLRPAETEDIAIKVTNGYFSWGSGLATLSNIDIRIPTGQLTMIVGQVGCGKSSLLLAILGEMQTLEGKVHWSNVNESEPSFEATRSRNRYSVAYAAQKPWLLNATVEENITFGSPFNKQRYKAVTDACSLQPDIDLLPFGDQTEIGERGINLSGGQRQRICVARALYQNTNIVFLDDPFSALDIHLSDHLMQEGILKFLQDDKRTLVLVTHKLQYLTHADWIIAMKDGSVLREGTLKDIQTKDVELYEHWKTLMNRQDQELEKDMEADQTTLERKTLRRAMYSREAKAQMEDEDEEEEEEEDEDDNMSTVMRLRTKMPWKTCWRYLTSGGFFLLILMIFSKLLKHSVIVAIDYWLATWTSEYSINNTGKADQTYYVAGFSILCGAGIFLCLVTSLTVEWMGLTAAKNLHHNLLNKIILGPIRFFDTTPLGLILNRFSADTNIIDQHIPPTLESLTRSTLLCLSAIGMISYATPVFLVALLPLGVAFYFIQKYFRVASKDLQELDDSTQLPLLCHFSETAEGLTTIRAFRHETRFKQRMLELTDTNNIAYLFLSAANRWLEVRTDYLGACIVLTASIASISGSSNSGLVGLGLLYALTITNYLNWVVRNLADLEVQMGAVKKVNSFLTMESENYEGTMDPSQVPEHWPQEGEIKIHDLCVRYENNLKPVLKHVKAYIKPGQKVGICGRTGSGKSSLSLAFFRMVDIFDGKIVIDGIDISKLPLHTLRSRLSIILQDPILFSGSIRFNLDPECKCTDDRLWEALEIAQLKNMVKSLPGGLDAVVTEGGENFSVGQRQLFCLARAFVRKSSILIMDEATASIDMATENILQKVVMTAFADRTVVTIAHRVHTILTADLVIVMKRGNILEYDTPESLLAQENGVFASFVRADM
# Experimental: as §2
# [4] = molecular target: neuronal type and pancreatic type of KATP channels (Kir6.2SUR1) (Homo sapiens, UniProt Q09428+Q14654); conditions: relatively high concentrations; cited from earlier work
# [5] = molecular target: vascular KATP channels (Kir6.1SRU2B) (Homo sapiens, UniProt O60706+Q15842); conditions: relevant low concentration; cited from earlier work
# vascular KATP channels (Kir6.1SRU2B), sequence (Q15842 whole entry): as the sequence (Q15842 whole entry, the tested form may be a part) above
# vascular KATP channels (Kir6.1SRU2B), sequence (O60706 1-1549 isoform O60706-2): as the sequence (O60706 1-1549 isoform O60706-2) above
# [6] = molecular target: T6, pancreatic β-cell KATP channels (Rattus norvegicus, UniProt P70673+Q09429); experiment: Whole-cell KATP currents induced by ramp pulses in rat pancreatic β-cells; assay type: cell-based; conditions: 100 μM bath application; external glucose 5.5 mM; ramp −90 to −50 mV
# T6 construct: Single Channel Currents of KATP Channels in Rat Pancreatic β-Cells; from tissue; host or cells: rat pancreatic β-cells
# T6 sequence (P70673 whole entry): as the sequence (P70673 whole entry) above
# T6 sequence (Q09429 whole entry): as the sequence (Q09429 whole entry) above
# Experimental: To determine whether or not THB and Ipt can block pancreatic β-cell KATP channels, whole-cell currents induced by repetitive ramp pulses from −90 to −50 mV (at 0.2 Hz) were recorded in voltage-clamp mode (external glucose=5.5 mM).
# Kir6.2/SUR2A = molecular target: T7, Kir6.2/SUR2A (Homo sapiens, UniProt O60706+Q14654); experiment: Whole-cell voltage-clamp currents of KATP channel subtypes, cardiac type; assay type: cell-based; conditions: 100 μM perfused for 30 sec; currents at −100 mV; n=4
# T7 construct: expressed in transfected cells
# Experimental: as §2
# [7] = molecular target: T6, pancreatic β-cell KATP channels; experiment: Inside-out patch single channel recording in rat pancreatic β-cells, ATP free solution; assay type: cell-based; conditions: bath-applied
structure (smiles),measurement,setting,value
NCCc1ccc(O)c(O)c1 [dopamine],membrane potential hyperpolarization by dopamine,"[1]; 10 μM dopamine bath-application, 10 neurons, p<0.01",10.5±1.1 mV
CCN1CCCC1CNC(=O)c1cc(S(N)(=O)=O)ccc1OC (centres unmarked) [sulpiride],effect of D2 receptor antagonist alone on resting membrane potential,"SNc DA neurons; exposure alone, neuronal firing rate was increased",did not clearly alter resting membrane potential
C=C(C)[C@H]1Cc2c(ccc3c2O[C@@H]2COc4cc(OC)c(OC)cc4[C@@H]2C3=O)O1 [rotenone],membrane potential after perfusion of rotenone,"SNc DA neurons; 1 μM rotenone for 1-3 min, averaged resting membrane potential −46.1±0.9 mV, 30 neurons, p<0.001",−61.1±0.9 mV
same,rotenone-induced outward current amplitude,neuronal KATP channels; in the presence of sulpiride,125.8±37.1 pA
CCCCNC(=O)NS(=O)(=O)c1ccc(C)cc1 [tolbutamide],membrane potential after exposure to substance alone,"SNc DA neurons; 100 μM, before: THB −46.5±0.9 (n=7), tolbutamide −44.4±1.6 (n=5)",−44.1±1.8 mV
same,membrane potential after substance during persistent perfusion of rotenone,"[2]; 1 μM rotenone, before: THB −61.7±1.3 (n=11), tolbutamide −61.6±1.2 (n=21), p<0.01",−52.5±1.1 mV
same,altered membrane potential in the presence of rotenone,[2]; 1 μM substance,0.2±0.1 mV
same,altered membrane potential in the presence of rotenone,[2]; 10 μM substance,4.4±0.3 mV
same,altered membrane potential in the presence of rotenone,[2]; 100 μM substance,9.1±0.5 mV
same,Hill coefficient of concentration-effect relationship curve,[2]; membrane depolarization in the presence of rotenone,2.1
same,IC50,"[2]; membrane depolarization in the presence of rotenone, read-out: IC50 of concentration-effect relationship curve (block of KATP channels)",10.4 µM
same,rotenone-induced outward current amplitude after addition of substance,"neuronal KATP channels; 100 mM substance as printed, sulpiride present, from 125.8±37.1 pA, p<0.01",45.8±23.7 pA
same,altered membrane potential on co-application with dopamine,[1]; difference THB vs tolbutamide p>0.05,8.5±2.2 mV
"COc1cc2c(cc1OC)[C@@H]1Cc3ccc(OC)c(OC)c3CN1CC2 [l-THP, l-tetrahydropalmatine]","altered membrane potential (depolarization) on rotenone-opened KATP channels, analog comparison",[2],3.4±0.5 mV
"COc1cc2c(cc1O)[C@@H]1Cc3ccc(O)c(OC)c3CN1CC2 [l-SPD, l-stepholidine]","altered membrane potential (depolarization) on rotenone-opened KATP channels, analog comparison",[2],8.4±1.4 mV
"CC(C)NC(C)(C)C(C)C [Ipt, Iptakalim]",effect on whole-cell current of Kir6.2/SUR1,Kir6.2/SUR1,blocks β-cell-type KATP channels
same,insulin secretion after bath application,rat pancreatic islets,34.5±1.8 pg/islet/min
same,concentration at which Ipt weakly opens cardiac KATP channels,[3],< 10 µM
same,normalized NPo value,Kir6.2SUR1 KATP channels,0.50±0.02
same,effect on whole-cell current of Kir6.1/SUR2B,Kir6.1/SUR2B,opens cardiovascular types of KATP channels
same,concentration at which Ipt blocks neuronal type and pancreatic type of KATP channels,[4],> 30 µM
same,concentration at which Ipt mainly opens vascular KATP channels,[5],< 10 µM
same,effect on β-cell KATP channel-mediated whole-cell currents,[6],reduced these β-cell KATP channel-mediated currents
same,effect on whole-cell current of Kir6.2/SUR2A,Kir6.2/SUR2A,opens cardiovascular types of KATP channels
same,effect on single channel activities opened by ATP free solution,[7],inhibited these single channel activities
CC1=Nc2ccc(Cl)cc2S(=O)(=O)N1 [dizoxide],effect of KATP channel opener on membrane potential,SNc DA neurons; 300 μM (FIG. 3B legend),hyperpolarized membrane potential
